According to patent publication US20240018166A1, “SULFONYL UREA NLRP3 INFLAMMASOME INHIBITORS” (Venatorx Pharmaceuticals, Inc., priority 2020, published 2024):

What was measured:
Type in all cases: cell-based
IL-1β = IL-1β inhibition assay (ELISA/HTRF of culture supernatants); conditions: Homo sapiens, PMA-differentiated THP-1 cells, tested 10 μM to 0.003 μM
Description: Human monocyte-like THP-1 cells were grown in RPMI media supplemented with 10% FBS (growth media) at 37° C., 5% CO2. Cell cultures were passaged every three days and maintained at a density of 5×10^5 to 1×10^6 cells per mL.
Compounds were prepared as 10 mM stock solutions in 100% DMSO. […] Each 200× dilution was then diluted 20-fold in growth media (step down dilution) to yield a 10× final assay concentration range. All compounds were tested over a final assay concentration range of 10 μM to 0.003 μM.
The level of IL-10 in supernatants from PMA-differentiated THP-1 cells was determined by ELISA using either the R&D Systems Human IL-1 beta/IL-1F2 Quantikine ELISA or the cisbio HTRF human IL 1 beta kit. Manufacturer's protocols were followed without deviation.
Background values were subtracted and resulting values were converted to percentage of vehicle-treated controls. Data was analyzed via GraphPad Prism 7.0 using a non-linear regression (variable slope (four-parameter)) equation.
Table 2 provides IL-10 ELISA EC50 values for example compounds. A indicates EC50>10 μM; B indicates EC50 between 1 and 10 μM (inclusive); C indicates EC50<1 μM.

[1] = MTT cell viability assay, HepG2 cells; conditions: human, read-out: HepG2 Cytotoxicity CC50
Description: (§1) In order to assess the cytotoxicity of the compounds, an MTT cell viability assay was performed in either unstimulated THP-1 or HepG2 cells as follows. 5×10^4 THP-1 or 5×10^3 HepG2 cells were seeded into each well of a 96-well plate in 90 μL of media. Compounds were added to cells as described for the IL-10 assay and returned to the incubator for an additional 72 hours. Next, 25 μL of MTT solution (5 mg/mL in sterile PBS) was added to each well. Plates were incubated for 3 hours at 37° C., 5% CO2. Next, for THP-1 cells, 100 μl of MTT solubilization solution (40% Dimethylformamide, 2% glacial acetic acid, 16% sodium dodecyl sulfate) was then added to each well and plates were incubated at room temperature in the dark overnight. For HepG2 cells, media was aspirated, 50 μL of DMSO was added and plates were mixed briefly with an orbital plate shaker. Absorbance at 570 nm was measured using a Perkin-Elmer EnVision plate reader.
Absorbance values were converted to percentage of vehicle-treated controls. Data was then analyzed using a non-linear regression (variable slope (four-parameter)) equation in GraphPad Prism 7.0. […]

[2] = MTT cell viability assay, THP-1 cells; conditions: human, unstimulated THP-1 cells, read-out: THP-1 Cytotoxicity CC50
Description: as §1
Absorbance values were converted to percentage of vehicle-treated controls. Data was then analyzed using a non-linear regression (variable slope (four-parameter)) equation in GraphPad Prism 7.0.
Table 2 provides THP-1 cytotoxicity assay CC50 values for example compounds. A indicates CC50>10 μM; B indicates CC50 between 1 and 10 μM (inclusive); C indicates CC50<1 μM. NT, not tested.

SMILES	EC50 (IL-1β)	CC50 at 72 h [1]	CC50 at 72 h [2]
O=C(Nc1c2c(cc3c1CCC3)CCC2)NS(=O)(=O)C1(CCCB(O)O)CC1 [Example 71, (3-(1-(N-((1,2,3,5,6,7-hexahydro-s-indacen-4-yl)carbamoyl)sulfamoyl)cyclopropyl)propyl)boronic acid]	1 to 10 µM	> 10 µM	
CC1(C)OB(CCCN2CC(S(=O)(=O)NC(=O)Nc3c4c(cc5c3CCC5)CCC4)C2)OC1(C)C [Example 73, N-((1,2,3,5,6,7-hexahydro-s-indacen-4-yl)carbamoyl)-1-(3-(4,4,5,5-tetramethyl-1,3,2-dioxaborolan-2-yl)propyl)azetidine-3-sulfonamide]	< 1 µM	> 10 µM	
CC(CB1OC(C)(C)C(C)(C)O1)c1coc(S(=O)(=O)NC(=O)Nc2c3c(cc4c2CCC4)CCC3)c1 (stereo not drawn) [Example 58, N-((1,2,3,5,6,7-hexahydro-s-indacen-4-yl)carbamoyl)-4-(1-(4,4,5,5-tetramethyl-1,3,2-dioxaborolan-2-yl)propan-2-yl)furan-2-sulfonamide]	< 1 µM	> 10 µM	
CC(CB1OC(C)(C)C(C)(C)O1)Cn1ccc(S(=O)(=O)NC(=O)Nc2c3c(cc4c2CCC4)CCC3)n1 (stereo not drawn) [Example 64, N-((1,2,3,5,6,7-hexahydro-s-indacen-4-yl)carbamoyl)-1-(2-methyl-3-(4,4,5,5-tetramethyl-1,3,2-dioxaborolan-2-yl)propyl)-1H-pyrazole-3-sulfonamide]	< 1 µM	> 10 µM	
COc1ccc(S(=O)(=O)NC(=O)Nc2c3c(cc4c2CCC4)CCC3)cc1CCCB1OC(C)(C)C(C)(C)O1 [Example 45, N-((1,2,3,5,6,7-hexahydro-s-indacen-4-yl)carbamoyl)-4-methoxy-3-(3-(4,4,5,5-tetramethyl-1,3,2-dioxaborolan-2-yl)propyl)benzenesulfonamide]	1 to 10 µM		> 10 µM
CC(C)c1cccc(C(C)C)c1NC(=O)NS(=O)(=O)c1ccccc1B(O)O [Example 11, (2-(N-((2,6-diisopropylphenyl)carbamoyl)sulfamoyl)phenyl)boronic acid]	> 10 µM		> 10 µM

Second part, led by results:

EC50 (IL-1β)	SMILES	CC50 at 72 h [1]	CC50 at 72 h [2]
< 1 µM	CC(C)(Cn1ccc(S(=O)(=O)NC(=O)Nc2c3c(cc4c2CCC4)CCC3)n1)B1OC(C)(C)C(C)(C)O1 [Example 66, N-((1,2,3,5,6,7-hexahydro-s-indacen-4-yl)carbamoyl)-1-(2-methyl-2-(4,4,5,5-tetramethyl-1,3,2-dioxaborolan-2-yl)propyl)-1H-pyrazole-3-sulfonamide]	> 10 µM	
< 1 µM	CC1(C)CCc2c1nc1c(c2NC(=O)NS(=O)(=O)c2ccn(CCCB(O)O)n2)CCC1 [Example 67, (3-(3-(N-((3,3-dimethyl-1,2,3,5,6,7-hexahydrodicyclopenta[b,e]pyridin-8-yl)carbamoyl)sulfamoyl)-1H-pyrazol-1-yl)propyl)boronic acid]	> 10 µM	
< 1 µM	CC(CB(O)O)Cn1ccc(S(=O)(=O)NC(=O)Nc2c3c(cc4c2CCC4)CCC3)n1 (stereo not drawn) [Example 65, (3-(3-(N-((1,2,3,5,6,7-hexahydro-s-indacen-4-yl)carbamoyl)sulfamoyl)-1H-pyrazol-1-yl)-2-methylpropyl)boronic acid]	> 10 µM	
< 1 µM	O=C(Nc1c2c(cc3c1CCC3)CCC2)NS(=O)(=O)c1ccn(CCCB(O)O)n1 [Example 63, (3-(3-(N-((1,2,3,5,6,7-hexahydro-s-indacen-4-yl)carbamoyl)sulfamoyl)-1H-pyrazol-1-yl)propyl)boronic acid]	> 10 µM	
< 1 µM	COc1cc(-c2ccc3c(c2NC(=O)NS(=O)(=O)c2ccn(CCCB(O)O)n2)CCC3)ccn1 [Example 69, (3-(3-(N-((5-(2-methoxypyridin-4-yl)-2,3-dihydro-1H-inden-4-yl)carbamoyl)sulfamoyl)-1H-pyrazol-1-yl)propyl)boronic acid]	> 10 µM	
1 to 10 µM	O=C(Nc1c2c(cc3c1CCC3)CCC2)NS(=O)(=O)c1ccc(CB(O)O)c(O)c1 [Example 44, (4-(N-((1,2,3,5,6,7-hexahydro-s-indacen-4-yl)carbamoyl)sulfamoyl)-2-hydroxybenzyl)boronic acid]		> 10 µM
